Experimental data as given in paper PMC9005681, “Use of AD Informer Set compounds to explore validity of novel targets in Alzheimer's disease pathology” (Alzheimer's & Dementia : Translational Research & Clinical …, 2022).
Where “and” joins values, the source holds several entries; their conditions need not be identical. Identical values can stand only once. Blank lines part the entries; values can stand above or below the molecule they belong to.

Tests used:
Experiment in all cases: PDSP GPCR panel primary binding assays at 10 μM
Conditions in all cases: primary assay
[1] = molecular target: T1, cloned human or rodent CNS receptors, channels, and transporters (PDSP panel) (Homo sapiens, UniProt P28335)
T1 construct: expressed in transfected cells
T1 sequence (P28335 33-458): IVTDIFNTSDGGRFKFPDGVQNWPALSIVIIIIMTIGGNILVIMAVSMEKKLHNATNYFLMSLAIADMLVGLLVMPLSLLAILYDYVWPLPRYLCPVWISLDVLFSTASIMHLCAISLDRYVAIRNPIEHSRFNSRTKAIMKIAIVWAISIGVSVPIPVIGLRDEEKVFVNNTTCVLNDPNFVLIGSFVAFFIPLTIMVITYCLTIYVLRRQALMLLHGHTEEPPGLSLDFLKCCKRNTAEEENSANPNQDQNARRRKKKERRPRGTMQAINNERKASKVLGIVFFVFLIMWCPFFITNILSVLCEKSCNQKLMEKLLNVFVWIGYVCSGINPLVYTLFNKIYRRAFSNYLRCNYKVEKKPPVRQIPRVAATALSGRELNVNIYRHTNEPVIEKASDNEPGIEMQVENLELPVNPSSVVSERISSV
How it was run: (§1)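 Each compound is first screened once at 10 μM, in quadruplicate, for radioligand displacement. Where mean displacement passes 50%, an 11-point dose-response in triplicate follows at that target, except at H3, PBR and GABAA.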

[2] = molecular target: T2, cloned human or rodent CNS receptors, channels, and transporters (PDSP panel) (Homo sapiens, UniProt P21917)
T2 construct: expressed in transfected cells
T2 sequence (P21917 1-419): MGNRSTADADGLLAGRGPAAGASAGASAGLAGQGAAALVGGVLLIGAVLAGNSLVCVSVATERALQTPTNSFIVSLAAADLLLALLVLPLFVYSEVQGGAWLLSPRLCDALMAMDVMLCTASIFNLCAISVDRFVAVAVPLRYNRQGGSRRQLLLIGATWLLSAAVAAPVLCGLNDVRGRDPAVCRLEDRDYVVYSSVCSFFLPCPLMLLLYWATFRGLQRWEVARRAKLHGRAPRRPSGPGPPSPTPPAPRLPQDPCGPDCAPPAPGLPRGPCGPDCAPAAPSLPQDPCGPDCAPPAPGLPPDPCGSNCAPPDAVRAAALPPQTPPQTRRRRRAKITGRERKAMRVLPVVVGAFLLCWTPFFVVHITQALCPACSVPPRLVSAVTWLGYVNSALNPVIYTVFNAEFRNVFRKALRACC
How it was run: as §1

[3] = molecular target: T3, cloned human or rodent CNS receptors, channels, and transporters (PDSP panel) (Homo sapiens, UniProt P35368)
T3 construct: expressed in transfected cells
T3 sequence (P35368 1-520): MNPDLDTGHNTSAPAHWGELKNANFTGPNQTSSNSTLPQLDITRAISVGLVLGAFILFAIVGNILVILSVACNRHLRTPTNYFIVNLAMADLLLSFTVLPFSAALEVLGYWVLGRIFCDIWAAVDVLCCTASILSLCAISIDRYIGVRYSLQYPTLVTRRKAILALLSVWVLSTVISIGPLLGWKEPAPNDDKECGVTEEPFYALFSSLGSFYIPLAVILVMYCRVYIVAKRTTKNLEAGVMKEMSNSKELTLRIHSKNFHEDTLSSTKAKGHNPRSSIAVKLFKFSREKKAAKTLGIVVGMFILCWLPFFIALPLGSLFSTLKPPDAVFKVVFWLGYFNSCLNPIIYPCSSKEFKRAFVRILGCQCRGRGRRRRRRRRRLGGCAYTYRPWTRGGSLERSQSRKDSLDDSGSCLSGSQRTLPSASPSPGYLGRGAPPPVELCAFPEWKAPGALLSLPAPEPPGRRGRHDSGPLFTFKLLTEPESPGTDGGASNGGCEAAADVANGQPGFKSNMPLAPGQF
How it was run: as §1

[4] = molecular target: T4, cloned human or rodent CNS receptors, channels, and transporters (PDSP panel) (Homo sapiens, UniProt P31645)
T4 construct: expressed in transfected cells
How it was run: as §1

[5] = molecular target: T5, cloned human or rodent CNS receptors, channels, and transporters (PDSP panel) (Homo sapiens, UniProt P08912)
T5 construct: expressed in transfected cells
T5 sequence (P08912 1-532): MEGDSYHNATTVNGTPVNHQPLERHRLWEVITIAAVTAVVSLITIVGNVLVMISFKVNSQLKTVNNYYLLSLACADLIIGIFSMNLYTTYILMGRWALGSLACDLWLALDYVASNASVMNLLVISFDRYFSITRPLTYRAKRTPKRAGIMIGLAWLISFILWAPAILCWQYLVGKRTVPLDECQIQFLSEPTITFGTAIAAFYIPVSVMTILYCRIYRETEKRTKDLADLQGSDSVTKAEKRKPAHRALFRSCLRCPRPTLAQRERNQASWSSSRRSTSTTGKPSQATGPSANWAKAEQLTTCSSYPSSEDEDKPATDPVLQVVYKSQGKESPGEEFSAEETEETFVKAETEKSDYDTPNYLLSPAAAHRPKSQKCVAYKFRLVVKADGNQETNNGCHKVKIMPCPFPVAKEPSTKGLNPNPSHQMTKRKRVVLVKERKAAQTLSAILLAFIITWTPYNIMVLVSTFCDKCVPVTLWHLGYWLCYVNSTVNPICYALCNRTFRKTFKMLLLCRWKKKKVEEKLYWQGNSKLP
How it was run: as §1

[6] = molecular target: T6, cloned human or rodent CNS receptors, channels, and transporters (PDSP panel) (Homo sapiens, UniProt P35462)
T6 construct: expressed in transfected cells
How it was run: as §1

T4 sequence (P31645 whole entry): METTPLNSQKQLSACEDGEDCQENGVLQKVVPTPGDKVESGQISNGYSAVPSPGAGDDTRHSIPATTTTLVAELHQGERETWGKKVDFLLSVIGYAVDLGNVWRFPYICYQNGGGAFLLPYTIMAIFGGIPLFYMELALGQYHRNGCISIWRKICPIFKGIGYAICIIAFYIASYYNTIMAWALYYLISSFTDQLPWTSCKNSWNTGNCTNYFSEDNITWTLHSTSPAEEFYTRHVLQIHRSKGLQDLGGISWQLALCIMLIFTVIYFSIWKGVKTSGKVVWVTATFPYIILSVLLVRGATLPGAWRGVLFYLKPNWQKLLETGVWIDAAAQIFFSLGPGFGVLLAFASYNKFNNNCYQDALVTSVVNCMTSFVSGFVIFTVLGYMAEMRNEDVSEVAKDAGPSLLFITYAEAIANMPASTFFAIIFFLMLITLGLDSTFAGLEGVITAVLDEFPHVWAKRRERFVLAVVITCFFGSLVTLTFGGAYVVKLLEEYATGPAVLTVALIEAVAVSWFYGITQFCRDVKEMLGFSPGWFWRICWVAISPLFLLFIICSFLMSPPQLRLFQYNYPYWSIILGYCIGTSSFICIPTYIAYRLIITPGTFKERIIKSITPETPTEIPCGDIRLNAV
T6 sequence (P35462 whole entry): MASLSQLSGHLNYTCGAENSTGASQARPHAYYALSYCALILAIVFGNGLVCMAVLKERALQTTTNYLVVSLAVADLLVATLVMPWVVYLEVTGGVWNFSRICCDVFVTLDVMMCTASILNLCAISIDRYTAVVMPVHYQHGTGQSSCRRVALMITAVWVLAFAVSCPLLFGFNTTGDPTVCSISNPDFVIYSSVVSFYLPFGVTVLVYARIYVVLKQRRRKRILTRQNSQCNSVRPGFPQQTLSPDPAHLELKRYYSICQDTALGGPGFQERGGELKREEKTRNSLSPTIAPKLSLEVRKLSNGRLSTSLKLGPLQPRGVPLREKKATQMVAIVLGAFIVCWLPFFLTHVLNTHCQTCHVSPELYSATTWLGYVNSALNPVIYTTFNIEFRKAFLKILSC

Molecule: CCCCNc1ncc2c(-c3ccc(CN4CCN(C)CC4)cc3)cn([C@H]3CC[C@H](O)CC3)c2n1 [UNC2025C, UNC2025]
Inhibition 1 ([1]; Receptor 5-HT2C, 10 μM): 29.45%
Inhibition 2 ([1]; Receptor 5-HT2C, 10 μM): 46.13%
Inhibition 3 ([1]; Receptor 5-HT2C, 10 μM): 31.41%
Inhibition 4 ([1]; Receptor 5-HT2C, 10 μM): 26.99%
Mean % ([1]; Receptor 5-HT2C, 10 μM, mean of Inhibition 1-4): 33.5%
Inhibition 1 ([2]; Receptor D4, 10 μM): 1.91%
Inhibition 2 ([2]; Receptor D4, 10 μM): -16.35%
Inhibition 3 ([2]; Receptor D4, 10 μM): 0.67%
Inhibition 4 ([2]; Receptor D4, 10 μM): 12.24%
Mean % ([2]; Receptor D4, 10 μM, mean of Inhibition 1-4): -0.38%
Inhibition 1 ([3]; Receptor Alpha1B, 10 μM): 15.21%
Inhibition 2 ([3]; Receptor Alpha1B, 10 μM): -0.72%
Inhibition 3 ([3]; Receptor Alpha1B, 10 μM): -5.53%
Inhibition 4 ([3]; Receptor Alpha1B, 10 μM): -1.63%
Mean % ([3]; Receptor Alpha1B, 10 μM, mean of Inhibition 1-4): 1.83%
Inhibition 1 ([4]; Receptor SERT, 10 μM): 82.19% and 71%
Inhibition 2 ([4]; Receptor SERT, 10 μM): 70.62% and 68.78%
Inhibition 3 ([4]; Receptor SERT, 10 μM): 68.77% and 67.79%
Inhibition 4 ([4]; Receptor SERT, 10 μM): 72.64% and 73.98%
Mean % ([4]; Receptor SERT, 10 μM, mean of Inhibition 1-4): 73.56% and 70.39%
Inhibition 1 ([5]; Receptor M5, 10 μM): 16.16%
Inhibition 2 ([5]; Receptor M5, 10 μM): 21.19%
Inhibition 3 ([5]; Receptor M5, 10 μM): 19.69%
Inhibition 4 ([5]; Receptor M5, 10 μM): 10.93%
Mean % ([5]; Receptor M5, 10 μM, mean of Inhibition 1-4): 16.99%
Inhibition 1 ([6]; Receptor D3, 10 μM): 18.68%
Inhibition 2 ([6]; Receptor D3, 10 μM): 25.04%
Inhibition 3 ([6]; Receptor D3, 10 μM): 10.39%
Inhibition 4 ([6]; Receptor D3, 10 μM): 7.11%
Mean % ([6]; Receptor D3, 10 μM, mean of Inhibition 1-4): 15.31%

Molecule: MDL 28170 [UNC10302675A]
Mean % ([1]; 5-HT2C, mean inhibition): -9.69%
Inhibition 1 ([1]; 5-HT2C, replicate 1): -16.2%
Inhibition 2 ([1]; 5-HT2C, replicate 2): -15.21%
Inhibition 3 ([1]; 5-HT2C, replicate 3): 9.82%
Inhibition 4 ([1]; 5-HT2C, replicate 4): -17.18%
Mean % ([2]; D4, mean inhibition): 0.31%
Inhibition 1 ([2]; D4, replicate 1): 10.14%
Inhibition 2 ([2]; D4, replicate 2): -3.06%
Inhibition 3 ([2]; D4, replicate 3): -7.08%
Inhibition 4 ([2]; D4, replicate 4): 1.24%
Mean % ([3]; Alpha1B, mean inhibition): -5.99%
Inhibition 1 ([3]; Alpha1B, replicate 1): -0.72%
Inhibition 2 ([3]; Alpha1B, replicate 2): -4.38%
Inhibition 3 ([3]; Alpha1B, replicate 3): -14.01%
Inhibition 4 ([3]; Alpha1B, replicate 4): -4.84%
Mean % ([4]; SERT, mean inhibition): -4.02% and -0.38%
Inhibition 1 ([4]; SERT, replicate 1): 19.12% and 14.24%
Inhibition 2 ([4]; SERT, replicate 2): -10.98% and 6.75%
Inhibition 3 ([4]; SERT, replicate 3): -20.47% and -17.68%
Inhibition 4 ([4]; SERT, replicate 4): -3.73% and -4.82%
Mean % ([5]; M5, mean inhibition): -3.08%
Inhibition 1 ([5]; M5, replicate 1): 7.51%
Inhibition 2 ([5]; M5, replicate 2): -10.6%
Inhibition 3 ([5]; M5, replicate 3): 0.26%
Inhibition 4 ([5]; M5, replicate 4): -9.5%
Mean % ([6]; D3, mean inhibition): -4.37%
Inhibition 1 ([6]; D3, replicate 1): 0.36%
Inhibition 2 ([6]; D3, replicate 2): 5.37%
Inhibition 3 ([6]; D3, replicate 3): -17.38%
Inhibition 4 ([6]; D3, replicate 4): -5.81%

Molecule: O=C(NC1CC1)C(=O)C(Cc1ccccc1)NC(=O)[C@H]1CCC(=O)N1Cc1ccccc1 (stereo partly drawn) [UNC10302676A, ABT-957 (Alicapistat)]
Mean % ([1]; 5-HT2C, mean inhibition): -3.07%
Inhibition 1 ([1]; 5-HT2C, replicate 1): 14.23%
Inhibition 2 ([1]; 5-HT2C, replicate 2): -14.23%
Inhibition 3 ([1]; 5-HT2C, replicate 3): -2.94%
Inhibition 4 ([1]; 5-HT2C, replicate 4): -9.33%
Mean % ([2]; D4, mean inhibition): 0.58%
Inhibition 1 ([2]; D4, replicate 1): 5.07%
Inhibition 2 ([2]; D4, replicate 2): -11.66%
Inhibition 3 ([2]; D4, replicate 3): 8.7%
Inhibition 4 ([2]; D4, replicate 4): 0.19%
Mean % ([3]; Alpha1B, mean inhibition): -8.47%
Inhibition 1 ([3]; Alpha1B, replicate 1): -8.91%
Inhibition 2 ([3]; Alpha1B, replicate 2): -13.01%
Inhibition 3 ([3]; Alpha1B, replicate 3): -14.75%
Inhibition 4 ([3]; Alpha1B, replicate 4): 2.78%
Mean % ([4]; SERT, mean inhibition): -3.96% and -1.74%
Inhibition 1 ([4]; SERT, replicate 1): 1.77% and -7.1%
Inhibition 2 ([4]; SERT, replicate 2): -9.07% and 1.55%
Inhibition 3 ([4]; SERT, replicate 3): -5.87% and 7.1%
Inhibition 4 ([4]; SERT, replicate 4): -2.67% and -8.51%
Mean % ([5]; M5, mean inhibition): -3.53%
Inhibition 1 ([5]; M5, replicate 1): 2.18%
Inhibition 2 ([5]; M5, replicate 2): -7.48%
Inhibition 3 ([5]; M5, replicate 3): -4.57%
Inhibition 4 ([5]; M5, replicate 4): -4.26%
Mean % ([6]; D3, mean inhibition): 10.85%
Inhibition 1 ([6]; D3, replicate 1): 10.26%
Inhibition 2 ([6]; D3, replicate 2): -6.41%
Inhibition 3 ([6]; D3, replicate 3): 23.48%
Inhibition 4 ([6]; D3, replicate 4): 16.06%

Mean % ([1]; 5-HT2C, mean inhibition): -14.6%
Inhibition 1 ([1]; 5-HT2C, replicate 1): 12.76%
Inhibition 2 ([1]; 5-HT2C, replicate 2): -11.29%
Inhibition 3 ([1]; 5-HT2C, replicate 3): -33.87%
Inhibition 4 ([1]; 5-HT2C, replicate 4): -26.01%
Mean % ([2]; D4, mean inhibition): 2.7%
Inhibition 1 ([2]; D4, replicate 1): 2.1%
Inhibition 2 ([2]; D4, replicate 2): -2.96%
Inhibition 3 ([2]; D4, replicate 3): 3.54%
Inhibition 4 ([2]; D4, replicate 4): 8.13%
Mean % ([3]; Alpha1B, mean inhibition): -0.37%
Inhibition 1 ([3]; Alpha1B, replicate 1): -2.21%
Inhibition 2 ([3]; Alpha1B, replicate 2): 6.62%
Inhibition 3 ([3]; Alpha1B, replicate 3): -2.78%
Inhibition 4 ([3]; Alpha1B, replicate 4): -3.12%
Mean % ([4]; SERT, mean inhibition): 7.19% and 15.11%
Inhibition 1 ([4]; SERT, replicate 1): 10.02% and 22.3%
Inhibition 2 ([4]; SERT, replicate 2): -5.87% and 16.69%
Inhibition 3 ([4]; SERT, replicate 3): 7.61% and 10.49%
Inhibition 4 ([4]; SERT, replicate 4): 16.99% and 10.96%
Mean % ([5]; M5, mean inhibition): -6.81%
Inhibition 1 ([5]; M5, replicate 1): 1.27%
Inhibition 2 ([5]; M5, replicate 2): -10.6%
Inhibition 3 ([5]; M5, replicate 3): -10.81%
Inhibition 4 ([5]; M5, replicate 4): -7.08%
Mean % ([6]; D3, mean inhibition): -12.51%
Inhibition 1 ([6]; D3, replicate 1): -10.05%
Inhibition 2 ([6]; D3, replicate 2): -18.34%
Inhibition 3 ([6]; D3, replicate 3): -11.4%
Inhibition 4 ([6]; D3, replicate 4): -10.24%
Molecule: CNc1nc(C)nc(N[C@H]2CCC[C@@H](C(=O)NCc3ccc(C#N)cc3C(F)(F)F)C2)n1 [UNC10302679A, GSK2256294A]
